The record followed here is patent US20220304993A1, “CONJUGATES OF AN ELECTRON-DONATING NITROGEN OR TERTIARY AMINE […]” (Ascendis Pharma A/S, priority 2019, published 2022).

The nature of the series: In vitro release kinetics: cleavage rate of the reversible bond from the conjugates. The class given is physicochemical. Particulars: pH 7.4, 37° C., aqueous buffer (48 mM sodium phosphate, 20% acetonitrile), disappearance of the conjugate by LCMS (UV detection), curve fitting, read-out: t1/2 (pH 7.4) (converted). As to the method: The cleavage rate of the reversible bond from conjugates 8a-b was monitored at pH 7.4 and 37° C. in aqueous buffer (pH 7.4, 48 mM sodium phosphate, 20% acetonitrile). Disappearance of the conjugate was determined by LCMS (UV detection) and fitted with curve fitting software to obtain the half-life of the release.

For `CNCCCN(C)C(=O)Oc1ccc(C(C)[N+](C)(C)CCc2ccccc2)cc1` (centres unmarked) [Compound 8a], the half-life was 1.3 h. Take `CNCCCN(C)C(=O)Oc1ccc(C(C)[n+]2cccc3ccccc32)cc1` (centres unmarked) [Compound 8b]: the half-life is 1.8 h.
